Data published in patent US8076455B2, “Guanosine triphosphate (GTP)-binding protein-coupled receptor protein, BG37” (Merck Sharp & Dohme Corp., priority 2000, dated 2011).

Tests used:
Type in all cases: cell-based
human BG37 [1] = target: T1, human BG37 (Homo sapiens, UniProt Q8TDU6); test: Assay of intracellular cAMP level (EIA) in human BG37-expressing cells (HEK/hBG37), steroid hormones; conditions: steroid hormone at various concentrations, 37° C. for 15 minutes
T1 construct: Human BG37 gene cut out, utilizing the BamHI-EcoRV site, from pCR2.1-BG37ORF was subcloned into the BamHI-EcoRV digested pKT52 vector; expressed in transfected cells
T1 sequence (Q8TDU6 1-330): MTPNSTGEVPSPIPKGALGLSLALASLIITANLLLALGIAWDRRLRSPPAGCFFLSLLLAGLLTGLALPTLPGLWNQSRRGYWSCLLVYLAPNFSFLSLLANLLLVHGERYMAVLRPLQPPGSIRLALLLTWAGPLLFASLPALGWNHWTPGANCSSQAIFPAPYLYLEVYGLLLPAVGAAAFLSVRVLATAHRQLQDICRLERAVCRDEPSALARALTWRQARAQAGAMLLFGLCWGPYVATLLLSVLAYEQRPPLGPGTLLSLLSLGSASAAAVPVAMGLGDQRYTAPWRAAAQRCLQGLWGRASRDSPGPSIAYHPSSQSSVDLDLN
Protocol: On the day before the measurement of the intracellular cAMP level, cells were re-plated at a cell density of 4×10^4 cells/well on a poly-D-lysin-coated 96-well plate (Becton Dickinson), and then incubated at 37° C. for another 24 hours.

human BG37 [2] = target: T1, human BG37; test: Bile acid-dependent increase of intracellular cAMP level (HTRF) in cells expressing the human BG37; conditions: cells expressing the human BG37 (HEK/hBG37); reagent at various concentrations, 37° C. for 20 minutes
Protocol: The intracellular cAMP level in the presence of a ligand was measured to determine the increase of the intracellular cAMP level through G proteins bound to the seven-transmembrane receptor.
On the day before the measurement of the intracellular cAMP level, cells were re-plated at a cell density of 4×10^4 cells/well on a poly-D-lysin-coated 96-well plate (Becton Dickinson), and then incubated at 37° C. for another 24 hours. Cells of the stable cell line were rinsed twice with 1 mM 3-Isobutyl-1-Methylxanthine (IBMX) (Nacalai Tesque) containing Opti-MEM solution (GIBCO BRL) (Opti-MEM-BSA-IBMX solution), and then incubated at 37° C. for 20 minutes. After removing the supernatant, Opti-MEM-IBMX solution containing a reagent at various concentrations was added thereto. The resulting mixture was incubated at 37° C. for 20 minutes. Then, the cells were lysed with 0.5% Triton X-100 to determine the level of intracellular cAMP.
Measurement of the intracellular cAMP level was carried out using cyclic AMP kit (HTRF) (Nihon Schering) according to the provided manual.

[3] = system: mock-transfected cells which contained the vector alone; test: Intracellular cAMP level (EIA) in mock-transfected cells containing the vector alone (control cells); conditions: various concentrations, 37° C. for 15 minutes
Protocol: Intracellular cAMP levels were determined using the method of Zlokarmik et al. (Science 279, 84 (1998)). The intracellular cAMP level in cells that reacted with the ligand was measured to determine the increase of intracellular cAMP level through G proteins bound to the seven-transmembrane receptor.
On the day before the measurement of the intracellular cAMP level, cells were re-plated at a cell density of 4×10^4 cells/well on a poly-D-lysin-coated 96-well plate (Becton Dickinson), and then incubated at 37° C. for another 24 hours. Cells of the stable cell line were rinsed twice with 0.1% BSA (SIGMA) and 1 mM 3-Isobutyl-1-Methylxanthine containing Opti-MEM solution (GIBCO BRL: Opti-MEM-BSA-IBMX solution) (Nacalai Tesque Inc.: IBMX), and then incubated at 37° C. for 20 minutes. After removing the supernatant, Opti-MEM-BSA-IBMX solution containing at various concentrations a steroid hormone, such as progesterone, was added thereto. The resulting mixture was incubated at 37° C. for 15 minutes. Then, the cells were lysed with Lysis Buffer to measure the level of intracellular cAMP.
The measurement of the intracellular cAMP level was carried out using cyclic AMP enzyme immuno-assay (EIA) system (Amersham Pharmacia Biotech) according to the provided manual.

| SMILES | intracellular cAMP level (human BG37 [2]) | further results |
| --- | --- | --- |
| C[C@]12CCC(=O)C=C1CC[C@@H]1[C@@H]2CC[C@]2(C)C(=O)CC[C@@H]12 [androstenedione] |  | intracellular cAMP level (human BG37 [1]): increased in a concentration-dependent manner |
| C[C@H](CCC(=O)O)[C@H]1CC[C@H]2[C@@H]3[C@H](O)C[C@@H]4C[C@H](O)CC[C@]4(C)[C@H]3CC[C@]12C [chenodeoxycholic acid] | elevated |  |
| C[C@H](CCC(=O)O)[C@H]1CC[C@H]2[C@@H]3[C@H](O)C[C@@H]4C[C@H](O)CC[C@]4(C)[C@H]3C[C@H](O)[C@]12C [cholic acid] | elevated |  |
| CC(=O)[C@H]1CC[C@H]2[C@@H]3CCC4=CC(=O)CC[C@]4(C)[C@H]3CC[C@]12C [progesterone] |  | concentration-dependent increase of intracellular cAMP [3]: not observed |
